Test results: patent US20250243171A1, “QUINAZOLINE COMPOUNDS FOR TREATMENT OF DISEASE” (Arthrosi Therapeutics, Inc., priority 2021, published 2025)

Key:
Test in all cases: EC50 assay: Ba/F3 stable cell proliferation (CCK-8, 72 h)
Format in all cases: cell-based
Ba/F3 stable cells [1] = biological target: T1, Ba/F3 stable cells (Homo sapiens, UniProt P00533, DUP767-769, cells depend on it); details: Ba/F3-EGFR V769-D770insASV cells
T1 construct: EC50 Ba/F3-EGFR V769-D770insASV; other: Ba/F3-EGFR V769-D770insASV cells, 72 h, CCK-8
In short: (§1)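 Ba/F3 stable cells were seeded at 4,000 cells/90 μL/well in 96-well plates and held 2 h at 37° C. in 5% CO2, then given 10 μL of serially titrated compound (0.1% DMSO final). After 72 h at 37° C., CCK-8 reagent was added for 4 hours and absorbance read at 450 nm to derive EC50.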

Ba/F3 stable cells [2] = biological target: T2, Ba/F3 stable cells (Homo sapiens, UniProt P00533, DUP768-770, cells depend on it); details: Ba/F3-EGFR D770-N771insSVD cells
T2 construct: EC50 Ba/F3-EGFR D770-N771insSVD; other: Ba/F3-EGFR D770-N771insSVD cells, 72 h, CCK-8
In short: as §1

Ba/F3 stable cells [3] = biological target: T3, Ba/F3 stable cells (Homo sapiens, UniProt P00533, INS763FQEA, cells depend on it); details: Ba/F3-EGFR A763-Y764insFQEA cells
T3 construct: EC50 Ba/F3-EGFR A763-Y764insFQEA; other: Ba/F3-EGFR A763-Y764insFQEA cells, 72 h, CCK-8
In short: as §1

Ba/F3 stable cells [4] = biological target: T4, Ba/F3 stable cells (Homo sapiens, UniProt P00533, DUP771-773, cells depend on it); details: Ba/F3-EGFR H773-V774insNPH cells
T4 construct: EC50 Ba/F3-EGFR H773-V774insNPH; other: Ba/F3-EGFR H773-V774insNPH cells, 72 h, CCK-8
In short: as §1

Ba/F3 stable cells [5] = biological target: T5, Ba/F3 stable cells (Homo sapiens, UniProt P04626, DUP772-775, cells depend on it); details: Ba/F3-HER2 A775-G776insYVMA cells
T5 construct: EC50 Ba/F3-HER2 A775-G776insYVMA; other: Ba/F3-HER2 A775-G776insYVMA cells, 72 h, CCK-8
In short: as §1

Ba/F3 stable cells [6] = biological target: T6, Ba/F3 stable cells (Homo sapiens, UniProt P00533, T790M/L858R, cells depend on it); details: Ba/F3-EGFR L858R-T790M cells
T6 construct: EC50 Ba/F3-EGFR L858R-T790M; other: Ba/F3-EGFR L858R-T790M cells, 72 h, CCK-8
In short: as §1

T6 sequence (P00533 whole entry T790M/L858R): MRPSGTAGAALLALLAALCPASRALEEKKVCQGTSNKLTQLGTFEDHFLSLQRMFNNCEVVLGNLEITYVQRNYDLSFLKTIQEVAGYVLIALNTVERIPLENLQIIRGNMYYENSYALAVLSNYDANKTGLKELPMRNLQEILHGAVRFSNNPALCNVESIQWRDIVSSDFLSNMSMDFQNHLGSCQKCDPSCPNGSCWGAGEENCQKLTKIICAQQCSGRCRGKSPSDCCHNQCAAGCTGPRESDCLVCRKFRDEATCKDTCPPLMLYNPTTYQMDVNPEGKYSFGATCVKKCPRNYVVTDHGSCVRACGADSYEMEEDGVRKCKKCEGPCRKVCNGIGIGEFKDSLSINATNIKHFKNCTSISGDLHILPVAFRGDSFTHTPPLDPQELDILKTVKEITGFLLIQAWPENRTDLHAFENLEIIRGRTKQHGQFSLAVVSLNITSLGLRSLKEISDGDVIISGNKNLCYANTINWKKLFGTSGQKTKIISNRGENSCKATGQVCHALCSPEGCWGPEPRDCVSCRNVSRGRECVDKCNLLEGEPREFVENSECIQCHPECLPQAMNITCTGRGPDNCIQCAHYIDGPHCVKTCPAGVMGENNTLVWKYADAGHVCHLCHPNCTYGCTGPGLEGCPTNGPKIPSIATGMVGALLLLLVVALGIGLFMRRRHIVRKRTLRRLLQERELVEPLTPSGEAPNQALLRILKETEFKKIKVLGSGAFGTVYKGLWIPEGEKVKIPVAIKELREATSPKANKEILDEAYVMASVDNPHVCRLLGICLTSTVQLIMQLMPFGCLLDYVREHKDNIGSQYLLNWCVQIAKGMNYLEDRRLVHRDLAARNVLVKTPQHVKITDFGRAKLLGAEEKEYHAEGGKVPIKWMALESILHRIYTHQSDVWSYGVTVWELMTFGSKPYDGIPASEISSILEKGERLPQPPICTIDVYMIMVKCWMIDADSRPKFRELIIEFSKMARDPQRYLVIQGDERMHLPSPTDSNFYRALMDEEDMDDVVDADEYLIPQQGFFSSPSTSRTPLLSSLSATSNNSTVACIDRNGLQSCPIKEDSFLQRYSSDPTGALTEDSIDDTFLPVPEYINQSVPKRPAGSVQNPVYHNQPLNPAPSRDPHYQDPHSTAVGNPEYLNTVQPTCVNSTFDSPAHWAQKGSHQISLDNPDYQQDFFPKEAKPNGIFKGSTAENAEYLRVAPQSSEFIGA
T2 sequence (P00533 with tags, fused parts or gaps DUP768-770): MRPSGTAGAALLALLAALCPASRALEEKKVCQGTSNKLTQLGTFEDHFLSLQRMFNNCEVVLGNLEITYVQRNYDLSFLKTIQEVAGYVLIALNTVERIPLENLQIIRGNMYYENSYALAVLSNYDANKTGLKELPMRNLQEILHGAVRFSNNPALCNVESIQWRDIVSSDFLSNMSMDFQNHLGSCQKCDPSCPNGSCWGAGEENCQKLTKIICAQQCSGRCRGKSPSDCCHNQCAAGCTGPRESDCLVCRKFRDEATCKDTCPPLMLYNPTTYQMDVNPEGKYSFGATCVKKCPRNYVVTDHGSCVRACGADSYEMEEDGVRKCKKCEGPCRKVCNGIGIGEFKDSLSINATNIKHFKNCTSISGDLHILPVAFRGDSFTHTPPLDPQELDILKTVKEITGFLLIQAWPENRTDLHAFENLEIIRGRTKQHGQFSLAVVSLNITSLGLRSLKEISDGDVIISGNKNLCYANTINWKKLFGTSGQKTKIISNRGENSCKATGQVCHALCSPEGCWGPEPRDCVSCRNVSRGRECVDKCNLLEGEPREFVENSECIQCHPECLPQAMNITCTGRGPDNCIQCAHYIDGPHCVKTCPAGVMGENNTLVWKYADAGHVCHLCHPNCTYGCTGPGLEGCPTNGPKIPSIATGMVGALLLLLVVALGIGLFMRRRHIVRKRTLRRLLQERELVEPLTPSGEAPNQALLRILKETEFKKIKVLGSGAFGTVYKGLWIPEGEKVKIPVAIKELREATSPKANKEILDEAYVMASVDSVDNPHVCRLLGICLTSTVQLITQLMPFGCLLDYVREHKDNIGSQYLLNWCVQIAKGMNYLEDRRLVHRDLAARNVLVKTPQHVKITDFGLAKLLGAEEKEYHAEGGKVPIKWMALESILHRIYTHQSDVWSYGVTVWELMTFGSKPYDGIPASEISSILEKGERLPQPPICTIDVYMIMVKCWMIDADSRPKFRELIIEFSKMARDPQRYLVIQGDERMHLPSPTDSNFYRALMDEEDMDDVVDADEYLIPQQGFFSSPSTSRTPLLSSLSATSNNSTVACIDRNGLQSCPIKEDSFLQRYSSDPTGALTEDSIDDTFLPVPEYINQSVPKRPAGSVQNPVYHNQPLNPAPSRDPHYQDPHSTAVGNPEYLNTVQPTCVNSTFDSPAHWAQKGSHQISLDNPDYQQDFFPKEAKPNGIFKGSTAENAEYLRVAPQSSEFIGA
T3 sequence (P00533 with tags, fused parts or gaps INS763FQEA): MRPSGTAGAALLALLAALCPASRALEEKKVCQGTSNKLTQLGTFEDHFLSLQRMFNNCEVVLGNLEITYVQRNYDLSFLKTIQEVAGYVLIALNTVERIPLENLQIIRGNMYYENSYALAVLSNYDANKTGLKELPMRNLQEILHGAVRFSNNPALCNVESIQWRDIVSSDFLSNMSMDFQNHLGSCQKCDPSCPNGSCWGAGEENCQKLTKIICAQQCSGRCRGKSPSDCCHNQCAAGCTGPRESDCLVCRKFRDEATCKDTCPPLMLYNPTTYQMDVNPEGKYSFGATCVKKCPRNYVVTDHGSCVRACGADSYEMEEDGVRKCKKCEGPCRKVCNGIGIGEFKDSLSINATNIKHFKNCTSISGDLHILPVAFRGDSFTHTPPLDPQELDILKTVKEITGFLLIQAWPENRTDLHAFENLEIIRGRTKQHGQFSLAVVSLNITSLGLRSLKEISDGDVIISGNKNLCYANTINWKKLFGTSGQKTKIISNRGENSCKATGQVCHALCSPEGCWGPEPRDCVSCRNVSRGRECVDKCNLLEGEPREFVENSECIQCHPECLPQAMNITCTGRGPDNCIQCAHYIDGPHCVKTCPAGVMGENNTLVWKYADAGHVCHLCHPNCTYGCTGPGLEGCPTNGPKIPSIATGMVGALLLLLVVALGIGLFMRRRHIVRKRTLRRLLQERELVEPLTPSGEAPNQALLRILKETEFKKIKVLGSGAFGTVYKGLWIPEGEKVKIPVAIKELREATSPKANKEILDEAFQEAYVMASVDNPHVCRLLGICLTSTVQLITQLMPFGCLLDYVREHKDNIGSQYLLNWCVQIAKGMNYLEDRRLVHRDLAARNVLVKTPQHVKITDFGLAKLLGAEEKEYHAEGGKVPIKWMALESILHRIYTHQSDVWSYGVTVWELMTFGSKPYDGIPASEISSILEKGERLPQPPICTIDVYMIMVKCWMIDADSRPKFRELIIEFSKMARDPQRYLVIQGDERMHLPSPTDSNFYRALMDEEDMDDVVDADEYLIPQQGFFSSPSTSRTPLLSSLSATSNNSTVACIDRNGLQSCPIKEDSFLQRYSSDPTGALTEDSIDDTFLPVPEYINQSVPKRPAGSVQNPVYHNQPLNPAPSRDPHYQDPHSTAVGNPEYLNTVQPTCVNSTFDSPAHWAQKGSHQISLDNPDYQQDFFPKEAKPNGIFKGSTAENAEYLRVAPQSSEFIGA
T5 sequence (P04626 with tags, fused parts or gaps DUP772-775): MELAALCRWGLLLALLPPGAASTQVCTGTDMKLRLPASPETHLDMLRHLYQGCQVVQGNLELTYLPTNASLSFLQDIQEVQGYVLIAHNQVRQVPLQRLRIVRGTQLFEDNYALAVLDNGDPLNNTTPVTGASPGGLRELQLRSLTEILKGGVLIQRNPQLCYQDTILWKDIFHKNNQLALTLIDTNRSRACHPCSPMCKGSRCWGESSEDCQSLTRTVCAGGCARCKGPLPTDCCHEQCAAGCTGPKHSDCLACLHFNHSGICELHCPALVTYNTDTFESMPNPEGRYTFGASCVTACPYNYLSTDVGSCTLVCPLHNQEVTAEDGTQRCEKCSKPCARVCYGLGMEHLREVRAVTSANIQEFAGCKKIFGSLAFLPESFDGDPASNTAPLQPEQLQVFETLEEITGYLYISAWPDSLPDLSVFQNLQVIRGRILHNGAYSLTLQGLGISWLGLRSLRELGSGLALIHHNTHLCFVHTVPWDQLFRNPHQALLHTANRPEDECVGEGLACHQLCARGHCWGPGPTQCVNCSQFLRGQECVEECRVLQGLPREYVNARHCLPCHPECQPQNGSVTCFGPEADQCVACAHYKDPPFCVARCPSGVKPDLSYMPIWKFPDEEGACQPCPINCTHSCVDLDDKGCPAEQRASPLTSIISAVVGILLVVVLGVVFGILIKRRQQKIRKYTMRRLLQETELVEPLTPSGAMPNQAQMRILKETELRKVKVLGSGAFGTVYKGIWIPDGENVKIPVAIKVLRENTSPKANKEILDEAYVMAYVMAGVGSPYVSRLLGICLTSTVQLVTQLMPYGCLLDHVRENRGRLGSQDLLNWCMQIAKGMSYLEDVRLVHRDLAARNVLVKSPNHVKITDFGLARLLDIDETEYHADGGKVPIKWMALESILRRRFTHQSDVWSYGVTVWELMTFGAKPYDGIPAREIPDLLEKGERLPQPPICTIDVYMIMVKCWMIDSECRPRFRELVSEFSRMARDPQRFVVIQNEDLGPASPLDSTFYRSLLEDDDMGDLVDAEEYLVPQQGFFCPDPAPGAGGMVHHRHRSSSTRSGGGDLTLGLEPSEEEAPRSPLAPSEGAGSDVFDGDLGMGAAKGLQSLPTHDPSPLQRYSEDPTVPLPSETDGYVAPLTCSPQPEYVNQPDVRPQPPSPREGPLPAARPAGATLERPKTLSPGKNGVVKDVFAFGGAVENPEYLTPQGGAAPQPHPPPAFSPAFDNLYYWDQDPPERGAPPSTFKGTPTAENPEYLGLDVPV

Row | Structure (SMILES) | EC50 (Ba/F3 stable cells [1]) [nM] | EC50 (Ba/F3 stable cells [2]) [nM] | EC50 (Ba/F3 stable cells [3]) [nM] | EC50 (Ba/F3 stable cells [4]) [nM] | EC50 (Ba/F3 stable cells [5]) [nM] | EC50 (Ba/F3 stable cells [6]) [nM]
1 | C=CC(=O)N1CCC(Oc2cc3c(Nc4ccc5[nH]ccc5c4)ncnc3cc2OC)CC1 [Compound 169, 1-(4-((4-((1H-indol-5-yl)amino)-7-methoxyquinazolin-6-yl)oxy)piperidin-1-yl)prop-2-en-1-one] | ≤ 200 | 200 to 1000 | ≤ 200 | ≤ 200 | ≤ 200 | 200 to 1000
2 | C=CC(=O)N1CCC(Oc2cc3c(Nc4ccc5c(ccn5C)c4)ncnc3cc2OC)CC1 [Compound 170, 1-(4-((7-methoxy-4-((1-methyl-1H-indol-5-yl)amino)quinazolin-6-yl)oxy)piperidin-1-yl)prop-2-en-1-one] | 200 to 1000 | > 1000 | ≤ 200 | 200 to 1000 | 200 to 1000 | ≤ 200
3 | C=CC(=O)N1CCC(Oc2cc3c(NCc4ccc(F)cc4)ncnc3cc2OC)CC1 [Compound 172, 1-(4-((4-((4-fluorobenzyl)amino)-7-methoxyquinazolin-6-yl)oxy)piperidin-1-yl)prop-2-en-1-one] | ≤ 200 | 200 to 1000 | ≤ 200 | 200 to 1000 | ≤ 200 | > 1000
4 | C=CC(=O)N1CCC(Oc2cc3c(N[C@H](C)c4ccc(F)cc4)ncnc3cc2OC)CC1 [Compound 173, (R)-1-(4-((4-((1-(4-fluorophenyl)ethyl)amino)-7-methoxyquinazolin-6-yl)oxy)piperidin-1-yl)prop-2-en-1-one] | ≤ 200 | > 1000 | ≤ 200 | 200 to 1000 | > 1000 | > 1000
5 | C=CC(=O)N1CCC(Oc2cc3c(C(=O)c4ccc(OC)cc4)ncnc3cc2OC)CC1 [Compound 174, 1-(4-((7-methoxy-4-(4-methoxybenzoyl)quinazolin-6-yl)oxy)piperidin-1-yl)prop-2-en-1-one] | > 1000 | > 1000 | > 1000 | > 1000 | > 1000 | > 1000
6 | C=CC(=O)N1CCC(Oc2cc3c(C(=O)c4ccc(Cl)c(Cl)c4F)ncnc3cc2OC)CC1 [Compound 175, 1-(4-((4-(3,4-dichloro-2-fluorobenzoyl)-7-methoxyquinazolin-6-yl)oxy)piperidin-1-yl)prop-2-en-1-one] | ≤ 200 | 200 to 1000 | ≤ 200 | ≤ 200 | 200 to 1000 | 200 to 1000
7 | C=CC(=O)N1C2CCCC1CC(Oc1cc3c(Nc4ccc(Cl)c(Cl)c4F)ncnc3cc1OC)C2 (stereo not drawn) [Compound 176, 1-(3-((4-((3,4-dichloro-2-fluorophenyl)amino)-7-methoxyquinazolin-6-yl)oxy)-9-azabicyclo[3.3.1]nonan-9-yl)prop-2-en-1-one] | ≤ 200 | ≤ 200 | ≤ 200 | ≤ 200 | ≤ 200 | ≤ 200
8 | C=CC(=O)N1C2CCC1CC(Oc1cc3c(Nc4ccc(Cl)c(Cl)c4F)ncnc3cc1OC)C2 (stereo not drawn) [Compound 177, 1-(3-((4-((3,4-dichloro-2-fluorophenyl)amino)-7-methoxyquinazolin-6-yl)oxy)-8-azabicyclo[3.2.1]octan-8-yl)prop-2-en-1-one] | ≤ 200 | ≤ 200 | ≤ 200 | ≤ 200 | ≤ 200 | ≤ 200
9 | C=CC(=O)N1C2CCCC1CC(Oc1cc3c(Nc4cccc5ccccc45)ncnc3cc1OC)C2 (stereo not drawn) [Compound 178, 1-(3-((7-methoxy-4-(naphthalen-1-ylamino)quinazolin-6-yl)oxy)-9-azabicyclo[3.3.1]nonan-9-yl)prop-2-en-1-one] | ≤ 200 | 200 to 1000 | ≤ 200 | ≤ 200 | ≤ 200 | ≤ 200
10 | C=CC(=O)N1C2CCCC1CC(Oc1cc3c(Nc4ccc5ccccc5c4)ncnc3cc1OC)C2 (stereo not drawn) [Compound 179, 1-(3-((7-methoxy-4-(naphthalen-2-ylamino)quinazolin-6-yl)oxy)-9-azabicyclo[3.3.1]nonan-9-yl)prop-2-en-1-one] | ≤ 200 | 200 to 1000 | ≤ 200 | ≤ 200 | ≤ 200 | ≤ 200
11 | C=CC(=O)N1C2CCC1CC(Oc1cc3c(Nc4ccc5ccccc5c4)ncnc3cc1OC)C2 (stereo not drawn) [Compound 180, 1-(3-((7-methoxy-4-(naphthalen-2-ylamino)quinazolin-6-yl)oxy)-8-azabicyclo[3.2.1]octan-8-yl)prop-2-en-1-one] | ≤ 200 | ≤ 200 | ≤ 200 | ≤ 200 | ≤ 200 | ≤ 200
12 | C=CC(=O)N1C2CCC1CC(Oc1cc3c(Nc4cccc5ccccc45)ncnc3cc1OC)C2 (stereo not drawn) [Compound 181, 1-(3-((7-methoxy-4-(naphthalen-1-ylamino)quinazolin-6-yl)oxy)-8-azabicyclo[3.2.1]octan-8-yl)prop-2-en-1-one] | ≤ 200 | ≤ 200 | ≤ 200 | ≤ 200 | ≤ 200 | ≤ 200
13 | C=CC(=O)N1C2CCCC1CC(Oc1cc3c(Nc4cccc5c4CCC5)ncnc3cc1OC)C2 (stereo not drawn) [Compound 182, 1-(3-((4-((2,3-dihydro-1H-inden-4-yl)amino)-7-methoxyquinazolin-6-yl)oxy)-9-azabicyclo[3.3.1]nonan-9-yl)prop-2-en-1-one] | 200 to 1000 | > 1000 | ≤ 200 | 200 to 1000 | > 1000 | 200 to 1000
14 | C=CC(=O)N1C2CCC1CC(Oc1cc3c(Nc4cccc5c4CCC5)ncnc3cc1OC)C2 (stereo not drawn) [Compound 183, 1-(3-((4-((2,3-dihydro-1H-inden-4-yl)amino)-7-methoxyquinazolin-6-yl)oxy)-8-azabicyclo[3.2.1]octan-8-yl)prop-2-en-1-one] | ≤ 200 | 200 to 1000 | ≤ 200 | ≤ 200 | 200 to 1000 | ≤ 200
15 | C=CC(=O)N1CCCC(c2ccc3ncnc(Nc4ccc(Cl)c(Cl)c4F)c3c2)C1 (stereo not drawn) [Compound 184, 1-(3-(4-((3,4-dichloro-2-fluorophenyl)amino)quinazolin-6-yl)piperidin-1-yl)prop-2-en-1-one] | ≤ 200 | 200 to 1000 | ≤ 200 | 200 to 1000 | ≤ 200 | > 1000
16 | C=CC(=O)N1CCCC(c2cc3c(Nc4ccc(Cl)c(Cl)c4F)ncnc3cc2OC)C1 (stereo not drawn) [Compound 185, 1-(3-(4-((3,4-dichloro-2-fluorophenyl)amino)-7-methoxyquinazolin-6-yl)piperidin-1-yl)prop-2-en-1-one] | ≤ 200 | 200 to 1000 | ≤ 200 | ≤ 200 | 200 to 1000 | ≤ 200
17 | C=CC(=O)N1CCC=C(c2cc3c(Nc4ccc(Cl)c(Cl)c4F)ncnc3cc2OC)C1 [Compound 186, 1-(5-(4-((3,4-dichloro-2-fluorophenyl)amino)-7-methoxyquinazolin-6-yl)-3,6-dihydropyridin-1(2H)-yl)prop-2-en-1-one] | ≤ 200 | 200 to 1000 | ≤ 200 | ≤ 200 | 200 to 1000 | > 1000
18 | C=CC(=O)N1CCC=C(c2ccc3ncnc(Nc4ccc(Cl)c(Cl)c4F)c3c2)C1 [Compound 187, 1-(5-(4-((3,4-dichloro-2-fluorophenyl)amino)quinazolin-6-yl)-3,6-dihydropyridin-1(2H)-yl)prop-2-en-1-one] | ≤ 200 | 200 to 1000 | ≤ 200 | 200 to 1000 | 200 to 1000 | 200 to 1000
19 | C=CS(=O)(=O)N1CCCC(c2ccc3ncnc(Nc4ccc(Cl)c(Cl)c4F)c3c2)C1 (stereo not drawn) [Compound 188, N-(3,4-dichloro-2-fluorophenyl)-6-(1-(vinylsulfonyl)piperidin-3-yl)quinazolin-4-amine] | ≤ 200 | 200 to 1000 | ≤ 200 | ≤ 200 | 200 to 1000 | ≤ 200
20 | C=CS(=O)(=O)N1CCC=C(c2ccc3ncnc(Nc4ccc(Cl)c(Cl)c4F)c3c2)C1 [Compound 190, N-(3,4-dichloro-2-fluorophenyl)-6-(1-(vinylsulfonyl)-1,2,5,6-tetrahydropyridin-3-yl)quinazolin-4-amine] | ≤ 200 | ≤ 200 | ≤ 200 | ≤ 200 | 200 to 1000 | ≤ 200
